Several values for one entry are separate records, joined by “and”; a condition that tells them apart may be missing. Identical values can stand only once.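 Five concentrations, 48 hours, 96-well plates. Here, GI50 denotes the concentration required for 50% inhibition of growth. Definition used: TGI = concentration required for complete inhibition of growth.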
How the values were obtained:
Assay in all cases: growth of human tumour cells (NCI), 48 h
MDA-MB-468 breast = tested on: MDA-MB-468 breast
786-0 renal = tested on: 786-0 renal
A498 renal = tested on: A498 renal
A549 NSCLC = tested on: A549 NSCLC
ACHN renal = tested on: ACHN renal
BT-549 breast = tested on: BT-549 breast
CAKI-1 renal = tested on: CAKI-1 renal
CCRF-CEM leukemia = tested on: CCRF-CEM leukemia
COLO 205 colon = tested on: COLO 205 colon
DU-145 prostate = tested on: DU-145 prostate
EKVX NSCLC = tested on: EKVX NSCLC
HCC-2998 colon = tested on: HCC-2998 colon
HCT-116 colon = tested on: HCT-116 colon
HCT-15 colon = tested on: HCT-15 colon
HL-60(TB) leukemia = tested on: HL-60(TB) leukemia
HOP-92 NSCLC = tested on: HOP-92 NSCLC
HS 578T breast = tested on: HS 578T breast
HT29 colon = tested on: HT29 colon
IGROV1 ovarian = tested on: IGROV1 ovarian
K-562 leukemia = tested on: K-562 leukemia
KM12 colon = tested on: KM12 colon
LOX IMVI melanoma = tested on: LOX IMVI melanoma
M14 melanoma = tested on: M14 melanoma
MALME-3M melanoma = tested on: MALME-3M melanoma
MCF7 breast = tested on: MCF7 breast
MDA-MB-231 breast = tested on: MDA-MB-231 breast
MDA-MB-435 = tested on: MDA-MB-435
MOLT-4 leukemia = tested on: MOLT-4 leukemia
NCI-H226 lung = tested on: NCI-H226 lung
NCI-H23 lung = tested on: NCI-H23 lung
NCI-H460 lung = tested on: NCI-H460 lung
NCI-H522 lung = tested on: NCI-H522 lung
NCI/ADR-RES ovarian = tested on: NCI/ADR-RES ovarian
OVCAR-3 ovarian = tested on: OVCAR-3 ovarian
OVCAR-4 ovarian = tested on: OVCAR-4 ovarian
OVCAR-5 ovarian = tested on: OVCAR-5 ovarian
OVCAR-8 ovarian = tested on: OVCAR-8 ovarian
PC-3 prostate = tested on: PC-3 prostate
RPMI-8226 leukemia = tested on: RPMI-8226 leukemia
RXF 393 renal = tested on: RXF 393 renal
SF-268 CNS = tested on: SF-268 CNS
SF-295 CNS = tested on: SF-295 CNS
SF-539 CNS = tested on: SF-539 CNS
SK-MEL-2 melanoma = tested on: SK-MEL-2 melanoma
SK-MEL-28 melanoma = tested on: SK-MEL-28 melanoma
SK-MEL-5 melanoma = tested on: SK-MEL-5 melanoma
SK-OV-3 ovarian = tested on: SK-OV-3 ovarian
SN12C renal = tested on: SN12C renal
SNB-19 CNS = tested on: SNB-19 CNS
SNB-75 CNS = tested on: SNB-75 CNS
SW-620 colon = tested on: SW-620 colon
T-47D breast = tested on: T-47D breast
TK-10 renal = tested on: TK-10 renal
U251 CNS = tested on: U251 CNS
UACC-257 melanoma = tested on: UACC-257 melanoma
UACC-62 melanoma = tested on: UACC-62 melanoma
UO-31 renal = tested on: UO-31 renal

CCOC(=O)C(Cc1c[nH]c2c(N(CCO)CCO)cccc12)(NC(C)=O)C(=O)OCC
TGI (MDA-MB-468 breast): 132 µM

O=C(NOC[C@H](O)CO)c1ccc(F)c(F)c1Nc1ccc(I)cc1F
GI50 (MDA-MB-468 breast): 13.9 µM | TGI (MDA-MB-468 breast): > 100 µM

CC[C@H](Nc1ncnc2nc[nH]c12)c1nc2cccc(F)c2c(=O)n1-c1ccccc1
GI50 (MDA-MB-468 breast): 2.1 µM | TGI (MDA-MB-468 breast): 10.4 µM

CCCCCCCCCCCCCCCCCC1=NC(C)(C)CN1CC(C)O (centres undefined)
GI50 (MDA-MB-468 breast): 12.1 µM | TGI (MDA-MB-468 breast): 24.4 µM

CCCCCCCCOC(=O)CC[C@@H](C)[C@H]1CC[C@H]2[C@@H]3[C@H](OC(=O)CCN)C[C@@H]4C[C@H](OC(=O)CCN)CC[C@]4(C)[C@H]3C[C@H](OC(=O)CCN)[C@]12C
GI50 (MDA-MB-468 breast): 2.49 µM | TGI (MDA-MB-468 breast): 7.17 µM

CCOC(=O)Nc1nc2ccc(OC)cc2s1
GI50 (MDA-MB-468 breast): 69.4 µM | TGI (MDA-MB-468 breast): > 100 µM

O=[N+]([O-])c1cc(Cl)c2[nH]c3c(Cl)cc([N+](=O)[O-])cc3c2c1
GI50 (MDA-MB-468 breast): 0.169 µM | TGI (MDA-MB-468 breast): 2.26 µM

C[C@@H]1C[C@H](C)CN(S(=O)(=O)c2ccc3c(NO)c4ccc(S(=O)(=O)N5C[C@H](C)C[C@H](C)C5)cc4c(N=O)c3c2)C1
GI50 (MDA-MB-468 breast): 0.154 µM | TGI (MDA-MB-468 breast): 0.312 µM

Nc1nonc1-c1nc2cnccc2n1C1CC1
GI50 (MDA-MB-468 breast): 1.96 µM | TGI (MDA-MB-468 breast): 10.1 µM

COc1ccc2c(=O)cc(-c3ccccc3)[nH]c2c1
GI50 (MDA-MB-468 breast): 0.887 µM | TGI (MDA-MB-468 breast): > 100 µM

COc1cc(OC)c(C(=O)/C=C/c2cc3c(cc2OCc2ccccc2)OC(C)(C)CC3)cc1CC=C(C)C
GI50 (MDA-MB-468 breast): 1.86 µM | TGI (MDA-MB-468 breast): 7.84 µM

O=C(/C=C/c1ccccc1)C(Br)C(Br)c1ccccc1 (centres undefined)
GI50 (MDA-MB-468 breast): 1.31 µM | TGI (MDA-MB-468 breast): 3.48 µM

O=C1/C(=C/c2cccc(Br)c2)COc2ccc(O)cc21
GI50 (MDA-MB-468 breast): 1.75 µM | TGI (MDA-MB-468 breast): 4.33 µM

CC(=O)c1ccc2c(c1)C1C=CCC1[C@H](c1cc3c(cc1Br)OCO3)N2 (some centres undefined)
GI50 (MDA-MB-468 breast): 0.308 µM

CC(C)Nc1cc(-c2c[nH]c(C(=O)N[C@H](CO)c3cccc(Cl)c3)c2)c(Cl)cn1
GI50 (MDA-MB-468 breast): 3.54 µM and 5.12 µM | TGI (MDA-MB-468 breast): 18.3 µM and > 10 µM

CC(C)c1c(-c2ccccc2)nc2c(C#N)c[nH]n2c1=O
GI50 (MDA-MB-468 breast): 19.1 µM | TGI (MDA-MB-468 breast): 50.9 µM

COc1ccc(NC(=O)CSc2nnc(-c3ccc(-c4nc5ccccc5[nH]4)cc3)o2)cc1
GI50 (786-0 renal): 1.92 µM | TGI (786-0 renal): 3.63 µM | GI50 (A498 renal): 2.1 µM | TGI (A498 renal): 5.75 µM | GI50 (A549 NSCLC): 1.97 µM | TGI (A549 NSCLC): 4.22 µM | GI50 (ACHN renal): 2.4 µM | TGI (ACHN renal): 5.86 µM | GI50 (BT-549 breast): 1.94 µM | TGI (BT-549 breast): 4.09 µM | GI50 (CAKI-1 renal): 1.89 µM | TGI (CAKI-1 renal): 3.83 µM | GI50 (CCRF-CEM leukemia): 3.03 µM | TGI (CCRF-CEM leukemia): > 100 µM | GI50 (COLO 205 colon): 4.51 µM | TGI (COLO 205 colon): 19.3 µM | GI50 (DU-145 prostate): 2.77 µM | TGI (DU-145 prostate): 7.62 µM | GI50 (EKVX NSCLC): 1.98 µM | TGI (EKVX NSCLC): 4.21 µM | GI50 (HCC-2998 colon): 12.1 µM | TGI (HCC-2998 colon): 34.6 µM | GI50 (HCT-116 colon): 2.38 µM | TGI (HCT-116 colon): 5.9 µM | GI50 (HCT-15 colon): 2.3 µM | TGI (HCT-15 colon): 5.67 µM | GI50 (HL-60(TB) leukemia): 5.04 µM | TGI (HL-60(TB) leukemia): > 100 µM | GI50 (HOP-92 NSCLC): 1.77 µM | TGI (HOP-92 NSCLC): 3.79 µM | GI50 (HS 578T breast): 2.56 µM | TGI (HS 578T breast): 7.29 µM | GI50 (HT29 colon): 1.82 µM | TGI (HT29 colon): 3.42 µM | GI50 (IGROV1 ovarian): 2.17 µM | TGI (IGROV1 ovarian): 5.06 µM | GI50 (K-562 leukemia): 3.65 µM | TGI (K-562 leukemia): > 100 µM | GI50 (KM12 colon): 3.49 µM | TGI (KM12 colon): 13.3 µM | GI50 (LOX IMVI melanoma): 1.81 µM | TGI (LOX IMVI melanoma): 3.38 µM | GI50 (M14 melanoma): 2.3 µM | TGI (M14 melanoma): 5.27 µM | GI50 (MALME-3M melanoma): 1.69 µM | TGI (MALME-3M melanoma): 3.14 µM | GI50 (MCF7 breast): 2.35 µM | TGI (MCF7 breast): 6.4 µM | GI50 (MDA-MB-231 breast): 1.89 µM | TGI (MDA-MB-231 breast): 3.45 µM | GI50 (MDA-MB-435): 2.08 µM | TGI (MDA-MB-435): 4.55 µM | GI50 (MDA-MB-468 breast): 2.51 µM | TGI (MDA-MB-468 breast): 6.44 µM | GI50 (MOLT-4 leukemia): 3.23 µM | TGI (MOLT-4 leukemia): > 100 µM | GI50 (NCI-H226 lung): 1.92 µM | TGI (NCI-H226 lung): 4.17 µM | GI50 (NCI-H23 lung): 1.93 µM | TGI (NCI-H23 lung): 3.84 µM | GI50 (NCI-H460 lung): 2.01 µM | TGI (NCI-H460 lung): 4.32 µM | GI50 (NCI-H522 lung): 1.72 µM | TGI (NCI-H522 lung): 3.4 µM | GI50 (NCI/ADR-RES ovarian): 9.32 µM | TGI (NCI/ADR-RES ovarian): > 100 µM | GI50 (OVCAR-3 ovarian): 2.29 µM | TGI (OVCAR-3 ovarian): 4.56 µM | GI50 (OVCAR-4 ovarian): 2.5 µM | TGI (OVCAR-4 ovarian): 6.64 µM | GI50 (OVCAR-5 ovarian): 2.28 µM | TGI (OVCAR-5 ovarian): 5.23 µM | GI50 (OVCAR-8 ovarian): 1.85 µM | TGI (OVCAR-8 ovarian): 3.66 µM | GI50 (PC-3 prostate): 2.06 µM | TGI (PC-3 prostate): 3.96 µM | GI50 (RPMI-8226 leukemia): 3.42 µM | TGI (RPMI-8226 leukemia): > 100 µM | GI50 (RXF 393 renal): 1.84 µM | TGI (RXF 393 renal): 3.56 µM | GI50 (SF-268 CNS): 2.02 µM | TGI (SF-268 CNS): 4.2 µM | GI50 (SF-295 CNS): 1.79 µM | TGI (SF-295 CNS): 3.34 µM | GI50 (SF-539 CNS): 1.79 µM | TGI (SF-539 CNS): 3.42 µM | GI50 (SK-MEL-2 melanoma): 2.07 µM | TGI (SK-MEL-2 melanoma): 4.45 µM | GI50 (SK-MEL-28 melanoma): 1.76 µM | TGI (SK-MEL-28 melanoma): 3.21 µM | GI50 (SK-MEL-5 melanoma): 1.91 µM | TGI (SK-MEL-5 melanoma): 3.94 µM | GI50 (SK-OV-3 ovarian): 2.36 µM | TGI (SK-OV-3 ovarian): 4.94 µM | GI50 (SN12C renal): 1.84 µM | TGI (SN12C renal): 3.59 µM | GI50 (SNB-19 CNS): 2.04 µM | TGI (SNB-19 CNS): 4.04 µM | GI50 (SNB-75 CNS): 1.83 µM | TGI (SNB-75 CNS): 3.89 µM | GI50 (SW-620 colon): 2.34 µM | TGI (SW-620 colon): 6.39 µM | GI50 (T-47D breast): 3.1 µM | TGI (T-47D breast): 9.51 µM | GI50 (TK-10 renal): 3.09 µM | TGI (TK-10 renal): 10.8 µM | GI50 (U251 CNS): 1.83 µM | TGI (U251 CNS): 3.36 µM | GI50 (UACC-257 melanoma): 1.92 µM | TGI (UACC-257 melanoma): 3.93 µM | GI50 (UACC-62 melanoma): 1.63 µM | TGI (UACC-62 melanoma): 3.04 µM | GI50 (UO-31 renal): 2.8 µM | TGI (UO-31 renal): 10.4 µM

Source: PubChem BioAssay (NCI)
